Data on 29 compounds can be found in patent US10758534B2 (Vertex Pharmaceuticals Incorporated, priority 2014, dated 2020).

Structures are written as SMILES. Like-named read-outs stand apart in the source and are kept apart here. Some results are limits rather than exact numbers.

This test concerns the target T1, F508del (Homo sapiens, UniProt P13569, DEL508-508).
T1 construct: expressed in transfected cells
As to the kind of experiment: Protocol 2: FRET membrane potential optical assay (VIPR), identification of correction compounds. The class given is cell-based. Summed up: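 Single-addition HTS format: F508del-expressing NIH3T3 cells pre-incubated 16 hrs at 37° C. ± compound, with 27° C. culture as positive control. Channel activation by forskolin 10 μM and genistein 20 μM upon switch to gluconate bath, pH 7.4; read-out is FRET-based depolarization signal.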

The mark [1] stands for this setting: F508del CFTR modulator activity, compounds of Table 1, read-out: EC30.
[2] abbreviates: Table 3, compounds of Table 1 as modulators of CFTR activity, protocol not stated.

T1 sequence (P13569 with tags, fused parts or gaps DEL508-508): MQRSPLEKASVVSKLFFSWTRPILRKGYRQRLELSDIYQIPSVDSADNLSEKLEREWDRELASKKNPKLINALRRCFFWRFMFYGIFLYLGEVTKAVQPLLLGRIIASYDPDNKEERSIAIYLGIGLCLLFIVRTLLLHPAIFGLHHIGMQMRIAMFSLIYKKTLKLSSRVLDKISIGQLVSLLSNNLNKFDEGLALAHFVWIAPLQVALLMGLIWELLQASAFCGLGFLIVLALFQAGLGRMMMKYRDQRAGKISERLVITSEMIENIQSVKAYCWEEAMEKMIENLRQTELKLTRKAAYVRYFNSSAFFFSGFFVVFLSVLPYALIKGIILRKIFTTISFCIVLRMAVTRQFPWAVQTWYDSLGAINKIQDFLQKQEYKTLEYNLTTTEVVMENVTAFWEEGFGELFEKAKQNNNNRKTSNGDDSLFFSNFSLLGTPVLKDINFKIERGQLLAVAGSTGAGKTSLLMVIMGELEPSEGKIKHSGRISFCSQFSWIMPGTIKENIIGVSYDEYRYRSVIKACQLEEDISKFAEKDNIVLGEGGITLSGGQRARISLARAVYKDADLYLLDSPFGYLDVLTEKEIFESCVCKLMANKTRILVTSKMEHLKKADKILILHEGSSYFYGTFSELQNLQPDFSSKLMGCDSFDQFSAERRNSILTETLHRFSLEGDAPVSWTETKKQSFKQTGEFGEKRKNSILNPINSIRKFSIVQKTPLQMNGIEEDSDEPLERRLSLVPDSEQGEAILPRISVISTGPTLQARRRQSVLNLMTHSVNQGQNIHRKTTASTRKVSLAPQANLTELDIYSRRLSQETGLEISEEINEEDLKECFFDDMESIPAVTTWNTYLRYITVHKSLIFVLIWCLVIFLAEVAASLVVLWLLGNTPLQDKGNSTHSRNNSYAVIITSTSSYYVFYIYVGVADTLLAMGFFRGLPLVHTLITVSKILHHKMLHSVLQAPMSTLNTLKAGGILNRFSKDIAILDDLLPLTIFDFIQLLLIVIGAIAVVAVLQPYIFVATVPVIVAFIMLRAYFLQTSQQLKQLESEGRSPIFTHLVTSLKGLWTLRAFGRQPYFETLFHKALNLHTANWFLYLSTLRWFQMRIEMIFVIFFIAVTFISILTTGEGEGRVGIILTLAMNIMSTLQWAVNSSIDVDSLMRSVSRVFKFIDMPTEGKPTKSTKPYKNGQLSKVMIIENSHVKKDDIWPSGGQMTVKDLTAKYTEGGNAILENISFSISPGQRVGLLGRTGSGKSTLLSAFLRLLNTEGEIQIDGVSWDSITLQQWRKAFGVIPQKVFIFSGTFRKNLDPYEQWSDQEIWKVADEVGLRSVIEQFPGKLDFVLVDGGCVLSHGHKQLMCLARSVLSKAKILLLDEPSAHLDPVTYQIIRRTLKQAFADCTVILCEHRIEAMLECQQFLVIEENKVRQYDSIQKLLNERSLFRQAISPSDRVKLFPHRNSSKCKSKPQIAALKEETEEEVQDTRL

On to `Cc1cc(I)cc(C)c1Oc1nc(-c2cc(F)cc(OCC(C)C)c2)ccc1C(=O)NS(=O)(=O)c1cccc(N)n1` [Compound 2671, N-[(6-amino-2-pyridyl)sulfonyl]-6-(3-fluoro-5-isobutoxy-phenyl)-2-(4-iodo-2,6-dimethyl-phenoxy)pyridine-3-carboxamide], for which, under setting [1], the EC30 was below 3 µM.

Regarding `COC(=O)C1CCN(c2cccc(S(=O)(=O)NC(=O)c3cccnc3N3CC(C)CC3(C)C)n2)CC1` (centres unmarked) [Compound 2442, methyl 1-[6-[[2-(2,2,4-trimethylpyrrolidin-1-yl)pyridine-3-carbonyl]sulfamoyl]-2-pyridyl]piperidine-4-carboxylate], the EC30 under setting [1] was 3 to 10 µM.

On to `Cc1cc(C)c(Oc2nc(-c3cccc(F)c3)ccc2C(=O)NS(=O)(=O)c2cccc(N)n2)c(C)c1` [Compound 570, N-[(6-amino-2-pyridyl)sulfonyl]-6-(3-fluorophenyl)-2-(2,4,6-trimethylphenoxy)pyridine-3-carboxamide], for which the EC30 entry under setting [2] is reported as “+++ (“+++” means <3 uM)”.

Regarding `COc1cccc(S(=O)(=O)NC(=O)c2cc3ccccc3n2Cc2c(C)cc(C)cc2C)n1` [Compound 253, N-[(6-methoxy-2-pyridyl)sulfonyl]-1-[(2,4,6-trimethylphenyl)methyl]indole-2-carboxamide], the EC30 entry under setting [2] is recorded as “+++ (“+++” means <3 uM)”.

Regarding `Cc1cc(C)c(Oc2nc(-c3ccc(Cl)cc3F)ccc2C(=O)NS(=O)(=O)c2cccc(N)n2)c(C)c1` [Compound 207, N-[(6-amino-2-pyridyl)sulfonyl]-6-(4-chloro-2-fluoro-phenyl)-2-(2,4,6-trimethylphenoxy)pyridine-3-carboxamide], the EC30 entry under setting [2] is reported as “+++ (“+++” means <3 uM)”.

Consider `CC(C)COc1cccc(-c2ccc(C(=O)NS(=O)(=O)c3ccn[nH]3)c(N3[C@H](C)CC[C@@H]3C)n2)c1` [Compound 710, 2-[(2S,5R)-2,5-dimethylpyrrolidin-1-yl]-6-(3-isobutoxyphenyl)-N-(1H-pyrazol-5-ylsulfonyl)pyridine-3-carboxamide], for which the EC30 entry under setting [2] was “+++ (“+++” means <3 uM)”.

Consider `CC(C)COc1cc(F)cc(-c2ccc(C(=O)NS(=O)(=O)N3CC[C@@H](N)C3)c(N3CCCC3(C)Cc3ccccc3)n2)c1` (single isomer, unassigned) [Compound 2325], for which, under setting [1], the EC30 was below 3 µM.

`CC(C)COc1cc(F)cc(-c2ccc(C(=O)NS(=O)(=O)c3cccc(N)n3)c(OC3C(C)CCC3C)n2)c1` (centres unmarked) [Compound 416, N-[(6-amino-2-pyridyl)sulfonyl]-2-(2,5-dimethylcyclopentoxy)-6-(3-fluoro-5-isobutoxy-phenyl)pyridine-3-carboxamide]: the EC30 entry under setting [2] is “+++ (“+++” means <3 uM)”.

Turning to `CC1CN(c2ncccc2C(=O)NS(=O)(=O)c2cccc(Oc3cc(Cl)cc(C#N)c3)n2)C(C)(C)C1` (centres unmarked) [Compound 2177, N—[[6-(3-chloro-5-cyano-phenoxy)-2-pyridyl]sulfonyl]-2-(2,2,4-trimethylpyrrolidin-1-yl)pyridine-3-carboxamide], the EC30 under setting [1] is below 3 µM.

As to `CC(C)COc1cc(F)cc(-c2ccc(C(=O)NS(=O)(=O)c3ccn[nH]3)c(N3CCC[C@@H](C)C3)n2)c1` [Compound 668, 6-(3-fluoro-5-isobutoxy-phenyl)-2-[(3R)-3-methyl-1-piperidyl]-N-(1H-pyrazol-5-ylsulfonyl)pyridine-3-carboxamide], the EC30 entry under setting [2] was “+++ (“+++” means <3 uM)”.

As for `COc1ccc(Oc2cccc(S(=O)(=O)NC(=O)c3cccnc3N3CC(C)CC3(C)C)n2)cc1` (centres unmarked) [Compound 2239, N—[[6-(4-methoxyphenoxy)-2-pyridyl]sulfonyl]-2-(2,2,4-trimethylpyrrolidin-1-yl)pyridine-3-carboxamide], under setting [1], the EC30 is below 3 µM.

As to `Cc1cccc(-c2ccc(C(=O)NS(=O)(=O)c3cccc(N)n3)c(N3C[C@@H](C)CC3(C)C)n2)c1O` [Compound 2203, N-[(6-amino-2-pyridyl)sulfonyl]-6-(2-hydroxy-3-methyl-phenyl)-2-[(4S)-2,2,4-trimethylpyrrolidin-1-yl]pyridine-3-carboxamide], under setting [1], the EC30 was below 3 µM.

`Cc1ccccc1Oc1nc(-c2cc(F)cc(OCC(C)C)c2)ccc1C(=O)NS(=O)(=O)c1cccc(N)n1` [Compound 778, N-[(6-amino-2-pyridyl)sulfonyl]-6-(3-fluoro-5-isobutoxy-phenyl)-2-(2-methylphenoxy)pyridine-3-carboxamide]: under setting [2], the EC30 result is given as “+++ (“+++” means <3 uM)”.

As for `CC(C)COc1cc(F)cc(-c2ccc(C(=O)NS(=O)(=O)c3cccc(N)n3)c(N3CC(c4ccccc4)CC3C)n2)c1` (centres unmarked) [Compound 488, N-[(6-amino-2-pyridyl)sulfonyl]-6-(3-fluoro-5-isobutoxy-phenyl)-2-(2-methyl-4-phenyl-pyrrolidin-1-yl)pyridine-3-carboxamide], under setting [2], the EC30 entry is “+++ (“+++” means <3 uM)”.

As for `C[C@@H]1CN(c2nc(-c3cc4ccccc4n3C(=O)OC(C)(C)C)ccc2C(=O)NS(=O)(=O)c2cccnc2N)C(C)(C)C1` [Compound 2657, tert-butyl 2-[5-[(2-amino-3-pyridyl)sulfonylcarbamoyl]-6-[(4S)-2,2,4-trimethylpyrrolidin-1-yl]-2-pyridyl]indole-1-carboxylate], under setting [1], the EC30 lay in the range of 3 to 10 µM.

As to `CC(C)COc1cc(F)cc(-c2ccc(C(=O)NS(=O)(=O)c3cccc(N)n3)c(N3CCC[C@@H](c4ccccc4)C3)n2)c1` [Compound 684, N-[(6-amino-2-pyridyl)sulfonyl]-6-(3-fluoro-5-isobutoxy-phenyl)-2-[(3S)-3-phenyl-1-piperidyl]pyridine-3-carboxamide], under setting [2], the EC30 entry is recorded as “+++ (“+++” means <3 uM)”.

For the compound `COc1cccc(Oc2cccc(S(=O)(=O)NC(=O)c3cccnc3N3CC(C)CC3(C)C)n2)c1OC` (centres unmarked) [Compound 2233, N—[[6-(2,3-dimethoxyphenoxy)-2-pyridyl]sulfonyl]-2-(2,2,4-trimethylpyrrolidin-1-yl)pyridine-3-carboxamide], under setting [1], the EC30 was below 3 µM.

On to `CC1CN(c2ncccc2C(=O)NS(=O)(=O)c2cccc(NCC3CCCO3)n2)C(C)(C)C1` (centres unmarked) [Compound 2131, N—[[6-(tetrahydrofuran-2-ylmethylamino)-2-pyridyl]sulfonyl]-2-(2,2,4-trimethylpyrrolidin-1-yl)pyridine-3-carboxamide], for which, under setting [1], the EC30 was above 10 µM.

As for `Cc1cc(C)c(Cn2nc(C(C)(C)C)c(C)c2C(=O)NS(=O)(=O)c2cccc(N)c2)c(C)c1` [Compound 20, N-(3-aminophenyl)sulfonyl-5-tert-butyl-4-methyl-2-[(2,4,6-trimethylphenyl)methyl]pyrazole-3-carboxamide], the EC30 entry under setting [2] is recorded as “+++ (“+++” means <3 uM)”.

Take `CNc1cccc(S(=O)(=O)NC(=O)c2cc(C(C)(C)C)nn2Cc2c(C)cc(C)cc2C)c1` [Compound 249, 5-tert-butyl-N-[3-(methylamino)phenyl]sulfonyl-2-[(2,4,6-trimethylphenyl)methyl]pyrazole-3-carboxamide]: under setting [2], the EC30 result is on record as “+++ (“+++” means <3 uM)”.

Turning to `CCOc1ccc(-c2ccc(C(=O)NS(=O)(=O)N3CC[C@H](N)C3)c(N3C[C@@H](C)CC3(C)C)n2)cc1` [Compound 2525, N-[(3S)-3-aminopyrrolidin-1-yl]sulfonyl-6-(4-ethoxyphenyl)-2-[(4S)-2,2,4-trimethylpyrrolidin-1-yl]pyridine-3-carboxamide], under setting [1], the EC30 is 3 to 10 µM.

Regarding `Cc1cc(C)c(Oc2nc(CCc3ccccc3)ccc2C(=O)NS(=O)(=O)c2cccc(N)n2)c(C)c1` [Compound 268, N-[(6-amino-2-pyridyl)sulfonyl]-6-phenethyl-2-(2,4,6-trimethylphenoxy)pyridine-3-carboxamide], the EC30 entry under setting [2] is reported as “+++ (“+++” means <3 uM)”.

On to `CCOC(=O)c1cccc(Nc2cccc(S(=O)(=O)NC(=O)c3cccnc3N3CC(C)CC3(C)C)n2)c1` (centres unmarked) [Compound 2060, ethyl 3-[[6-[[2-(2,2,4-trimethylpyrrolidin-1-yl)pyridine-3-carbonyl]sulfamoyl]-2-pyridyl]amino]benzoate], for which the EC30 under setting [1] was below 3 µM.

`Cc1cc(C)c(Cn2c(C(=O)NS(=O)(=O)c3ccccc3)cc3c(C)cccc32)c(C)c1` [Compound 143, N-(benzenesulfonyl)-4-methyl-1-[(2,4,6-trimethylphenyl)methyl]indole-2-carboxamide]: the EC30 result under setting [2] is recorded as “+++ (“+++” means <3 uM)”.

On to `CC1CN(c2ncccc2C(=O)NS(=O)(=O)c2cccc(OCC(C)(C)C)n2)C(C)(C)C1` (centres unmarked) [Compound 2412, N—[[6-(2,2-dimethylpropoxy)-2-pyridyl]sulfonyl]-2-(2,2,4-trimethylpyrrolidin-1-yl)pyridine-3-carboxamide], for which, under setting [1], the EC30 is below 3 µM.

Turning to `Cc1cc(C(C)(C)C)cc(C)c1Cn1nc(C(C)(C)C)cc1C(=O)NS(=O)(=O)c1ccccc1` [Compound 443, N-(benzenesulfonyl)-5-tert-butyl-2-[(4-tert-butyl-2,6-dimethyl-phenyl)methyl]pyrazole-3-carboxamide], the EC30 result under setting [2] is on record as “+ (“+” means greater than 10 uM)”.

`CC(C)Oc1ccc(-c2ccc(C(=O)NS(=O)(=O)c3cccc(N)n3)c(N3CCC(c4ccccc4)C3C)n2)cn1` (centres unmarked) [Compound 625, N-[(6-amino-2-pyridyl)sulfonyl]-6-(6-isopropoxy-3-pyridyl)-2-(2-methyl-3-phenyl-pyrrolidin-1-yl)pyridine-3-carboxamide]: the EC30 entry under setting [2] is reported as “+++ (“+++” means <3 uM)”.

With `CC(C)CNc1ccc(-c2ccc(C(=O)NS(=O)(=O)c3cccc(N)n3)c(N3CC(C)CC3(C)C)n2)cn1` (centres unmarked) [Compound 569, N-[(6-amino-2-pyridyl)sulfonyl]-6-[16-(isobutylamino)-3-pyridyl]-2-(2,2,4-trimethylpyrrolidin-1-yl)pyridine-3-carboxamide], under setting [2], the EC30 entry was “+++ (“+++” means <3 uM)”.

Consider `C[C@@H]1CN(c2nc(-c3cnc(N(C)C)nc3)ccc2C(=O)NS(=O)(=O)c2cccnc2N)C(C)(C)C1` [Compound 2021, N-[(2-amino-3-pyridyl)sulfonyl]-6-[2-(dimethylamino)pyrimidin-5-yl]-2-[(4S)-2,2,4-trimethylpyrrolidin-1-yl]pyridine-3-carboxamide], for which the EC30 under setting [1] is 3 to 10 µM.
